Results as given in patent publication US10098878B2, “HIF-2α inhibitors for treating iron overload disorders” (The Board of Regents of the University of Texas System, priority 2014, dated 2018).

Molecular target: T1, HIF-2α HIS TAG-PASB Domain (Homo sapiens, UniProt Q99814)
T1 construct: 100 nM HIF-2α HIS TAG-PASB Domain
Assay: HIF-2α Scintillation Proximity Assay (SPA)
Type: binding
Conditions: 150 nM Compound 211 probe, 100 nM HIF-2α HIS TAG-PASB Domain; read-out: SPA IC50
Description: The total assay volume was about 100 μL in the following configuration: 2 μL compound in 100% DMSO, 88 μL buffer with protein and probe and 10 μL of SPA beads. […] The percent inhibition was determined and IC50 values were calculated using the Dotmatics system based on the following equation: % inhibition=[(high control−sample)/(high control−low control)]×100.

T1 sequence (Q99814 240-350 limits assumed): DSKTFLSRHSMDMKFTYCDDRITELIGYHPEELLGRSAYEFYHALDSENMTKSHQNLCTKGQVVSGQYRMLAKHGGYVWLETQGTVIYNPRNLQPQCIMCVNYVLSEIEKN

Compound | IC50 [nM]
O=C1c2c(ccc(Oc3cc(F)cc(Cl)c3)c2Br)S(=O)(=O)C12CC2 [Compound 168, 4-Bromo-5-(3-chloro-5-fluoro-phenoxy)-1,1-dioxo-spiro[benzothiophene-2,1′-cyclopropane]-3-one] | 6300
N#Cc1c(Oc2cc(F)cc(Cl)c2)ccc2c1[C@H](O)CS2(=O)=O [Compound 171, (3S)-5-(3-Chloro-5-fluoro-phenoxy)-3-hydroxy-1,1-dioxo-2,3-dihydrobenzothiophene-4-carbonitrile] | 12900
CC1(C)C(O)c2c(ccc(Oc3cc(F)cc(Cl)c3)c2C#N)S1(=O)=O (centres unmarked) [Compound 172, 5-(3-Chloro-5-fluoro-phenoxy)-3-hydroxy-2,2-dimethyl-1,1-dioxo-3H-benzothiophene-4-carbonitrile] | 19600
O=S1(=O)C[C@H](O)c2c1ccc(Oc1cc(F)cc(F)c1)c2Br [Compound 177, (R)-4-bromo-5-(3,5-difluorophenoxy)-3-hydroxy-2,3-dihydrobenzo[b]thiophene 1,1-dioxide] | 4660
N#Cc1cc(F)cc(Oc2ccc3c(c2Br)[C@@H](O)CS3(=O)=O)c1 [Compound 179, (R)-3-((4-Bromo-3-hydroxy-1,1-dioxido-2,3-dihydrobenzo[b]thiophen-5-yl)oxy)-5-fluorobenzonitrile] | 13400
O=S1(=O)CC(O)c2c1ccc(Oc1cc(F)cc(F)c1)c2Br (centres unmarked) [Compound 182, 4-Bromo-5-(3,5-difluorophenoxy)-3-hydroxy-2,3-dihydrobenzo[b]thiophene 1,1-dioxide] | 17100
O=S1(=O)C[C@H](O)c2c1ccc(Oc1cccc(F)c1)c2Br [Compound 183, (R)-4-bromo-5-(3-fluorophenoxy)-3-hydroxy-2,3-dihydrobenzo[b]thiophene 1,1-dioxide] | 13700
COc1cncc(Oc2ccc3c(c2Br)[C@@H](O)C(F)(F)S3(=O)=O)c1 [Compound 193, (R)-4-bromo-2,2-difluoro-3-hydroxy-5-((5-methoxypyridin-3-yl)oxy)-2,3-dihydrobenzo[b]thiophene 1,1-dioxide] | 14300
CCOc1ccc2c(c1C(F)F)[C@@H](O)C(F)(F)S2(=O)=O [Compound 202, (R)-4-(Difluoromethyl)-5-ethoxy-2,2-difluoro-3-hydroxy-2,3-dihydrobenzo[b]thiophene 1,1-dioxide] | 15500
N#Cc1cc(F)cc(Oc2ccc3c(c2C(F)F)C(O)(C(F)(F)F)C(F)(F)S3(=O)=O)c1 (centres unmarked) [Compound 209, 3-((4-(difluoromethyl)-2,2-difluoro-3-hydroxy-1,1-dioxido-3-(trifluoromethyl)-2,3-dihydrobenzo[b]thiophen-5-yl)oxy)-5-fluorobenzonitrile] | 4400

Other lines, results leading:

IC50 [nM] | Compound
10900 | N#Cc1cc(F)cc(Oc2ccc3c(c2C#CCF)C(O)C(F)(F)S3(=O)=O)c1 (centres unmarked) [Compound 174, 3-[[2,2-Difluoro-4-(3-fluoroprop-1-ynyl)-3-hydroxy-1,1-dioxo-3H-benzothiophen-5-yl]oxy]-5-fluoro-benzonitrile]
17600 | O=C1CS(=O)(=O)c2ccc(Oc3cc(F)cc(F)c3)cc21 [Compound 181, 5-(3,5-Difluorophenoxy)benzo[b]thiophen-3(2H)-one 1,1-dioxide]
10200 | N#Cc1cncc(Oc2ccc3c(c2Br)[C@@H](O)CS3(=O)=O)c1 [Compound 184, (R)-5-((4-bromo-3-hydroxy-1,1-dioxido-2,3-dihydrobenzo[b]thiophen-5-yl)oxy)nicotinonitrile]
6860 | CC1(O)c2cc(Oc3cc(F)cc(F)c3)ccc2S(=O)(=O)C1(F)F (centres unmarked) [Compound 189, 5-(3,5-Difluorophenoxy)-2,2-difluoro-3-hydroxy-3-methyl-2,3-dihydrobenzo[b]thiophene 1,1-dioxide]

Same assay, conditions: SPA IC50, 150 nM Compound 211 probe, 100 nM HIF-2α HIS TAG-PASB Domain

IC50 [nM] | Compound
4100 | O=S1(=O)CCC(O)c2c1ccc(Oc1cc(F)cc(F)c1)c2C(F)F (centres unmarked) [Compound 166, 5-(Difluoromethyl)-6-(3,5-difluorophenoxy)-4-hydroxythiochromane 1,1-dioxide]
21900 | CC1(C)C(O)c2c(ccc(Oc3cc(F)cc(Cl)c3)c2Br)S1(=O)=O (centres unmarked) [Compound 170, 4-Bromo-5-(3-chloro-5-fluoro-phenoxy)-2,2-dimethyl-1,1-dioxo-3H-benzothiophen-3-ol]

Test system: 786-O-Hif-Luc cells
Assay: Luciferase Assay
Type: cell-based
Conditions: 786-O-Hif-Luc cells; about 24 hours; read-out: Luciferase EC50
Description: A pool of infected cells were then selected against 2 μg/mL of puromycin (P8833, Sigma) for 10 days followed by limited dilution to select single clones.
Each concentration was tested in triplicate. After about 24 hours, luciferase activity was determined using ONE-Glo Luciferase Assay Reagent (E6110, Promega) following the manufacturer's recommended procedure. EC50 were calculated by using Dotmatics software.

Compound | EC50 [nM]
N#Cc1cc(F)cc(Oc2ccc3c(c2C(F)F)[C@@H](O)C(F)(F)S3(=O)=O)c1 (single isomer, unassigned) [Compound 113] | 7

Same assay, conditions: 24 h, 786-O-Hif-Luc cells; about 24 hours; read-out: Luciferase EC50

Compound | EC50 [nM]
N#Cc1cc(F)cc(Oc2ccc(S(=O)(=O)C(F)F)c3c2CC(F)(F)[C@H]3O)c1 [Compound 1, 3-[(1S)-7-(difluoromethylsulfonyl)-2,2-difluoro-1-hydroxy-indan-4-yl]oxy-5-fluoro-benzonitrile] | 7
N#Cc1cc(F)cc(Oc2ccc(S(=O)(=O)C(F)(F)F)c3c2C[C@@H](F)[C@H]3O)c1 [Compound 15, 3-Fluoro-5-(((1S,2R)-2-fluoro-1-hydroxy-7-((trifluoromethyl)sulfonyl)-2,3-dihydro-1H-inden-4-yl)oxy)benzonitrile] | 3
O=S(=O)(c1ccc(Oc2ccc(F)c3[nH]ncc23)c2c1C(O)C(F)(F)C2)C(F)(F)F (centres unmarked) [Compound 21, 2,2-Difluoro-4-((7-fluoro-1H-indazol-4-yl)oxy)-7-((trifluoromethyl)sulfonyl)-2,3-dihydro-1H-inden-1-ol] | 137
O=[N+]([O-])c1ccc(Oc2cc(F)cc(Cl)c2)c2c1C(O)CC2 (centres unmarked) [Compound 27, 4-(3-Chloro-5-fluorophenoxy)-7-nitro-2,3-dihydro-1H-inden-1-ol] | 1390
CS(=O)(=O)c1ccc(Oc2cc(F)cc(C#N)c2)c2c1[C@H](O)[C@H](F)[C@H]2F [Compound 58, 3-[(1S,2S,3S)-2,3-difluoro-1-hydroxy-7-methylsulfonyl-indan-4-yl]oxy-5-fluoro-benzonitrile] | 1020

Now from value to compound:

EC50 [nM] | Compound
177 | Cn1cc(Oc2ccc(S(=O)(=O)C(F)(F)F)c3c2CC(F)(F)[C@H]3O)cn1 [Compound 13, (S)-2,2-Difluoro-4-((1-methyl-1H-pyrazol-4-yl)oxy)-7-((trifluoromethyl)sulfonyl)-2,3-dihydro-1H-inden-1-ol]
650 | CS(=O)(=O)c1ccc(Oc2cc(F)cc(C#N)c2)c2c1[C@H](O)CC2 [Compound 51, 3-fluoro-5-[(1R)-1-hydroxy-7-methylsulfonyl-indan-4-yl]oxy-benzonitrile]
4 | CS(=O)(=O)c1ccc(Oc2cc(F)cc(C#N)c2)c2c1[C@H](O)[C@H](F)[C@@H]2F [Compound 53, 3-[(1S,2S,3R)-2,3-difluoro-1-hydroxy-7-methylsulfonyl-indan-4-yl]oxy-5-fluoro-benzonitrile]

Same assay, conditions: 24 h, read-out: Luciferase EC50

Compound | EC50 [nM]
CS(=O)(=O)c1ccc(Oc2cc(F)cc(C#N)c2)c2c1[C@H](O)C(F)(F)C2 [Compound 5, (S)-3-((2,2-Difluoro-1-hydroxy-7-(methylsulfonyl)-2,3-dihydro-1H-inden-4-yl)oxy)-5-fluorobenzonitrile] | 24
CS(=O)(=O)c1ccc(Oc2cc(F)cc(C#N)c2)c2c1[C@H](O)[C@H](F)C2 [Compound 17, 3-Fluoro-5-(((1S,2R)-2-fluoro-1-hydroxy-7-(methylsulfonyl)-2,3-dihydro-1H-inden-4-yl)oxy)benzonitrile] | 36
CNS(=O)(=O)c1ccc(Oc2cc(F)cc(C#N)c2)c2c1[C@H](O)C(F)(F)C2 [Compound 26, (S)-7-(3-Cyano-5-fluorophenoxy)-2,2-difluoro-3-hydroxy-N-methyl-2,3-dihydro-1H-indene-4-sulfonamide] | 119
CS(=O)(=O)c1ccc(Oc2cc(F)cc(C#N)c2)c2c1[C@H](O)[C@@H](F)C2 [Compound 35, 3-fluoro-5-(((1S,2S)-2-fluoro-1-hydroxy-7-(methylsulfonyl)-2,3-dihydro-1H-inden-4-yl)oxy)benzonitrile] | 473
N#Cc1cc(F)cc(Oc2ccc(S(=O)(=O)C(F)(F)F)c3c2CC(F)(F)[C@H]3N)c1 [Compound 54, 3-[(1S)-1-amino-2,2-difluoro-7-(trifluoromethylsulfonyl)indan-4-yl]oxy-5-fluoro-benzonitrile] | 170

The next lines start with the values.

EC50 [nM] | Compound
244 | CS(=O)(=O)c1ccc(Oc2cc(F)cc(C#N)c2)c2c1[C@H](N)C(F)(F)C2 [Compound 6, 3-[(1S)-1-Amino-2,2-difluoro-7-methylsulfonyl-indan-4-yl]oxy-5-fluoro-benzonitrile]
24 | [2H]C([2H])([2H])S(=O)(=O)c1ccc(Oc2cc(F)cc(C#N)c2)c2c1[C@]([2H])(O)C(F)(F)C2 [Compound 16, 3-[(1S)-1-Deuterio-2,2-difluoro-1-hydroxy-7-(trideuteriomethylsulfonyl)indan-4-yl]oxy-5-fluoro-benzonitrile]
15 | N#Cc1cncc(Oc2ccc(S(=O)(=O)C(F)(F)F)c3c2CC(F)(F)[C@H]3O)c1 [Compound 18, (S)-5-((2,2-Difluoro-1-hydroxy-7-((trifluoromethyl)sulfonyl)-2,3-dihydro-1H-inden-4-yl)oxy)nicotinonitrile]
24 | [2H][C@]1(O)c2c(S(C)(=O)=O)ccc(Oc3cc(F)cc(C#N)c3)c2CC1(F)F [Compound 23, (S)-3-((2,2-Difluoro-1-hydroxy-7-(methylsulfonyl)-2,3-dihydro-1H-inden-4-yl-1-d)oxy)-5-fluorobenzonitrile]

Same assay, conditions: read-out: Luciferase EC50

EC50 [nM] | Compound
19 | N#Cc1cc(F)cc(Oc2ccc3c(c2C(F)F)[C@H](O)C(F)(F)S3(=O)=O)c1 (single isomer, unassigned) [Compound 144]
